Test results from patent US10500202B2, “Pharmaceutical formulation containing tadalafil” (Druggability Technologies IP Holdco Limited, priority 2016, dated 2019).
Read-outs that look alike come from different tables or passages of the source. Values belong to the compound of their own block, whether it stands above or below them.

Columns and labels:
[1] = cited from earlier work
[2] = cited from earlier work; remark: listed apart in the source
[3] = 10 mg/kg, beagle dog, cited from earlier work
PAMPA permeability = format: in vitro ADME
Protocol: PAMPA permeability of the selected compositions was measured in order to select the pharmaceutical Tadalafil compositions having the best in-vitro performance (FIG. 2). PAMPA permeability measurements were performed as described by M. Kansi et al. (Journal of medicinal chemistry, 41, (1998) pp 1007) with modifications based on S. Bendels et al (Pharmaceutical research, 23 (2006) pp 2525). Permeability was measured in a 96-well plate assay across an artificial membrane composed of dodecane with 20% soy lecithin supported by a PVDF membrane (Millipore, USA). The receiver compartment was phosphate buffered saline (pH 7.0) supplemented with 1% sodium dodecyl sulfate. The assay was performed at room temperature; incubation time was 4 hours in ultrapurified water or 10-20 and 30 minutes in simulates saliva, respectively. The concentration in the receiver compartment was determined by UV-VIS spectrophotometry (Thermo Scientific Genesys S10).
PAMPA permeabilities of Tadalafil pharmaceutical compositions in water (H2O), FaSSIF (Fa) and FeSSIF (Fe) media were above 7.6×10^−6 cm/s, 7.2×10^−6 cm/s and 4.3×10^−6 cm/s, respectively, while it was 0.6×10^−6 cm/s, 0.6×10^−6 cm/s and 0.8*10^−6 cm/s in water, FaSSIF and FeSSIF media for the unformulated, crystalline reference. PAMPA permeability of Cialis® in water, FaSSIF and FeSSIF media was above 0.9×10^−6 cm/s, 0.8×10^−6 cm/s and 1.1×10^−6 cm/s, respectively.
PAMPA permeability of the solid Tadalafil pharmaceutical compositions was used to monitor the physical stability of the pharmaceutical formulation. PAMPA permeability was measured after storage at different conditions.

Papp (PAMPA permeability; pH 7, FaSSIF): 0.6 ×10⁻⁶ cm/s | Papp (PAMPA permeability; pH 7, FeSSIF): 0.8 ×10⁻⁶ cm/s | Papp at 4 h (PAMPA permeability; pH 7, Water): 0.6 ×10⁻⁶ cm/s
SMILES: CN1CC(=O)N2[C@H](c3ccc4c(c3)OCO4)c3[nH]c4ccccc4c3C[C@@H]2C1=O [Tadalafil]
Exposure (AUC) versus dose ([1]; dose range of 2.5 to 20 mg, healthy subjects): increases proportionally with dose | Fraction of administered dose in semen ([1]; healthy subjects): Less than 0.0005% | Mean oral clearance ([1]; healthy subjects): 2.5 L/h | Mean terminal half-life ([1]; healthy subjects): 17.5 h | Steady-state exposure relative to a single dose ([1]; once-daily dosing): approximately 1.6 fold | Time to steady-state plasma concentrations ([1]; once-daily dosing): ≤ 5 days | Mean apparent volume of distribution ([1]; oral administration): approximately 63 L | Effect of food on rate and extent of absorption ([1]; oral): not influenced by food | Excretion in the feces ([1]; predominantly as metabolites): approximately 61 % of the dose | Excretion in the urine ([1]; predominantly as metabolites): approximately 36 % of the dose | tmax values ([1]; range): 0.5 to 6 h | Fraction in plasma bound to proteins ([1]; therapeutic concentrations): 94% | Solubility ([2]; ethanol): very slightly soluble | Solubility ([2]; water): practically insoluble | Estimated F ([3]; iv, published (reference)): 100% | AUC24 ([3]; iv, published): 22894 ng·h/mL | Cmax ([3]; iv, published): 3663 ng/mL | AUC24 ([3]; oral, published): 4109 ± 3141 ng·h/mL | Cmax ([3]; oral, published): 526 ± 281 ng/mL | Estimated F ([3]; oral, published): 18% | tmax ([3]; oral, published): 3 h

SMILES: Cc1cccc(O)c1O [Methylcatechol]
Methylcatechol concentrations relative to glucuronide concentrations ([1]; circulating metabolites of Tadalafil): less than 10%
